89 molecules from a melting point compilation (Tetko et al.; mined from patent text by program, amines drawn as free bases though some values may be those of a salt) can be followed below.

Each structure is given as a SMILES string.

What is called melting point is the temperature, or range, at which the solid turns liquid. Take `CCCCCC(=O)OC(C)OC1=C(C(=O)Nc2ccccn2)N(C)S(=O)(=O)c2ccccc21` (centres undefined): the melting point lay within 62 to 65 °C.

`Cn1ncnc1COc1nn2c(-c3ccc(F)cc3F)nnc2cc1C1(C)CCCCC1` displayed a melting point of 196 °C.

In turn, `CC1CCc2cc3c(cc21)OCC(=O)CO3` (centres undefined) yielded a melting point of 79 to 80 °C.

Regarding `COC(=O)c1cn2ccsc2n1`, the melting point is 153 to 156 °C.

`N#Cc1cnc2cc(/C=C/CCN3CCOCC3)ccc2c1Nc1ccc(Cl)cc1Cl` yielded a melting point of 129 to 131 °C.

The molecule `O=C1c2ccc(N3CCCC3)c3cc(Br)cc(c23)C(=O)N1O` had a melting point of 234 to 235 °C.

`COC(Cc1ccc(OCCc2nc(-c3ccccc3)oc2C)c2ccccc12)C(=O)O` (centres undefined): the melting point lay within 128 to 130 °C.

In the case of `COCCNC(=O)c1cccc(-c2cccc3oc(Cc4cccc(C(F)(F)F)c4)cc23)c1`, the melting point is 91 to 92 °C.

For the molecule `COc1cc(OC)c2c(c1)OC(C(C)(C)C(N)=O)CC2=O` (centres undefined), the melting point lay within 161 to 163 °C.

Regarding `NCCn1cnc(-c2ccccc2)c1-c1ccccc1`, the melting point was 96 to 98 °C.

Take `Cc1ccc(OCCOS(N)(=O)=O)cc1`: the melting point was 108 to 110 °C.

Molecule `Cc1ccccc1C1CC(=O)c2c(C)c[nH]c2C1` (centres undefined) yielded a melting point of 190 to 191 °C.

As for `Cc1nn(-c2cc(Oc3ccc(OC(C)C(=O)O)cn3)c(Cl)cc2F)c(=O)n1C(F)F` (centres undefined), the melting point was 49 to 51 °C.

For the molecule `CC(C)(C)c1cccc(S(=O)(=O)n2c(C(F)c3ccc(C(=O)O)cc3)cc3cc(C(F)(F)F)ccc32)c1` (centres undefined), the melting point turned out to be 170 °C.

In turn, `O=C(CCCCCS(=O)c1ccc(-c2ccc(Cl)cc2)cc1)NO` (centres undefined) yielded a melting point of 108 to 110 °C.

On to `COC(c1ccc(NC(=O)c2c(C)nn(C)c2C)cc1CC(C)C)(C(F)(F)F)C(F)(F)F`, for which the melting point lay in the range of 189 to 190 °C.

On to `C#CCN(c1ccc(C(=O)NC(CCc2nnn[nH]2)C(=O)O)cc1)C(C)c1cc2c(=O)[nH]c(C)nc2cc1C` (centres undefined), for which the melting point stood at 207 °C.

As for `CCc1nnc2c(NC)nc3ccccc3n12`, the melting point lay within 271 to 273 °C.

`CC(C)(C)c1ccccc1N1CCN(C(=O)c2ncoc2CCC(=O)O)CC1` gave a melting point of 180 to 181 °C.

Take `Cc1ccc(-c2ccccc2C(=O)Nc2ccc(C(=O)N3C[C@@H]4CCCN4C(=S)c4ccccc43)cc2)cc1`: the melting point fell in the range of 140 to 145 °C.

Turning to `COc1ccc(C(=O)c2sc3cc(OC)ccc3c2-c2ccccc2)cc1`, the melting point was 127 to 128 °C.

Turning to `CCn1c(=O)[nH]c2c(C)nn(CC)c2c1=O`, the melting point lay within 208 to 209 °C.

The molecule `CCCCc1cn(Cc2ccc(-c3ccccc3C(=O)OC)cc2)c2cc(CO)ccc2c1=O` registered a melting point of 140 °C.

`Cc1nnc(-c2ccc3occ(-c4cc(Cl)ccc4F)c3c2)o1` had a melting point of 187 to 188 °C.

On to `CC(O)c1cccc(OCc2cccc(C(=O)O)c2)c1` (centres undefined), for which the melting point lay within 115 to 117 °C.

In the case of `Cc1ccc(F)cc1C(=O)Nc1ccc(C(=O)O)cc1`, the melting point is 272 to 275 °C.

`Cc1cc(C)c(N2CCCc3c2nn(C)c3-c2ccccc2C(F)(F)F)c(C)c1` displayed a melting point of 59 to 63 °C.

For `Clc1nc(C2CC2)nc(N2CCOCC2)n1`, the melting point was 99 to 100 °C.

`Cc1ccc(-c2cc(Br)c3[nH]c(=O)ccc3c2)c(C)n1`: the melting point fell in the range of 212 to 215 °C.

As for `Nc1nc(Nc2ccc(N3CCOCC3)cc2)sc1C(=O)c1c(Cl)cncc1Cl`, the melting point is 292 °C.

`O=C(N[C@H]1CSc2ccc(C(F)(F)F)cc2NC1=O)OCc1ccccc1` had a melting point of 120 to 123 °C.

`CN(C)Cc1nc(C(N)=O)nn1-c1ccc(Cl)cc1C(=O)c1ccccc1Cl` yielded a melting point of 177 to 180 °C.

As to `COC(=O)CCCCCCCCCCCCCCC=O`, the melting point came out at 41.5 °C.

`CCCN(CC1CC1)c1nc(C)[nH]c2c(-c3ccc(Cl)cc3Cl)nc(C)c1-2` had a melting point of 66 to 68 °C.

With `COc1ccc(C2CCCC(=O)N2c2ccccc2)cc1` (centres undefined), the melting point fell in the range of 77 to 78 °C.

As for `Cc1noc(NS(=O)(=O)c2ccccc2-c2c[nH]c3ccccc23)c1C`, the melting point is 184 to 186 °C.

As to `CC(=O)NC[C@H]1CN(c2ccc3c(c2)N(C(=O)OCc2ccccc2)[C@H](C)C3)C(=O)O1`, the melting point lay in the range of 201 to 203 °C.

Molecule `CCOC(=O)C1=C2c3[nH]c4ccc(Cl)cc4c3CCN2CCC1` gave a melting point of 82 to 83 °C.

In turn, `CC(=O)Oc1cc(/C=C/c2ccccc2)cc(OC(C)=O)c1OC(C)=O` yielded a melting point of 119 to 120 °C.

`C=CCCn1cnc2c1c(=O)[nH]c(=O)n2C`: the melting point fell in the range of 245 to 246 °C.

In the case of `CCC1CC(=O)N(CCc2ccc(NC(=O)c3ccno3)cc2)N=C1c1ccc(OC)c(OC)c1` (centres undefined), the melting point was determined as 196 °C.

`Cc1cc(CCCOc2c(C)cc(-c3noc(CC(F)(F)F)n3)cc2C)on1` returned a melting point of 84 to 85 °C.

Molecule `CC(=O)c1cccc(Oc2cccc(Cl)n2)c1` showed a melting point of 82 to 83 °C.

Regarding `O=C(O)c1cc(Cn2cc(C3c4ccccc4C=Cc4ccccc43)c(=S)[nH]c2=O)ccc1Cc1ccccc1`, the melting point came to 135 °C.

`CCOC(=O)c1c(Cn2cncn2)nc2sc3c(c2c1-c1ccc(OC)c(OC)c1)CN(C(=O)OCc1ccccc1)CC3`: the melting point was in the range of 169 to 170 °C.

Molecule `CC(O)(c1ccc(OCc2ccc3ccccc3n2)cc1)c1ccc(OCc2ccc3ccccc3n2)cc1` returned a melting point of 129 to 131 °C.

In turn, `COc1ccc2cc(CC(=O)OCC(C)=O)ccc2c1` registered a melting point of 122 to 124 °C.

`COC(=O)CCCc1cc2nc(Cl)ccc2n1S(=O)(=O)c1cccc2cccnc12`: the melting point was determined as 64 °C.

On to `CS(=O)(=O)Nc1cc(F)c(Cl)cc1I`, for which the melting point was 123 to 124 °C.

On to `Cc1cc(-c2n[nH]c(=O)c(O)c2O)ccc1O`, for which the melting point was 265 to 267 °C.

`COC(=O)C(c1ccccc1Cl)N1CCc2sc(OC(=O)C(C)(C)C)cc2C1` (centres undefined) displayed a melting point of 118 to 120 °C.

Turning to `CC1(C)COc2cc(Cl)c(Cl)cc2C(O)(c2cccnc2)C1` (centres undefined), the melting point was 166 °C.

`C[C@@H](O)c1nccc(N2CCN(c3cnc4ccccc4n3)CC2)n1` yielded a melting point of 106 to 108 °C.

On to `CC(C(=O)O)c1ccc(C2=CCCCC2)cc1` (centres undefined), for which the melting point was 101 to 102 °C.

Turning to `CNC(=O)c1cccc(NC(=O)Cc2cccc(Cl)c2)c1`, the melting point fell in the range of 165 to 166 °C.

`CCc1nc(Cl)cc(NN)n1` registered a melting point of 147 to 150 °C.

`COC(=O)CCCc1c(-c2ccc(F)cc2)[nH]c2ccc(-c3ccc([N+](=O)[O-])cc3)cc12` showed a melting point of 190 to 191 °C.

`COC(=O)c1ccc(-c2nc3ccc(C(=O)O)cc3[nH]2)cc1`: the melting point lay within 308 to 309 °C.

`CCN(C)c1cccc(Cl)c1COc1cccn2c(Br)c(C)nc12` had a melting point of 124 to 126 °C.

Molecule `CCSc1c(O)ccc2[nH]ncc12` showed a melting point of 116 °C.

In turn, `CC(C)(C#N)c1cc(C(=O)c2cccnc2)cc(C(C)(C)C#N)c1` displayed a melting point of 87 to 89 °C.

`CC(=O)OCc1ncc2n1-c1ccc(Cl)cc1C(c1ccccc1F)=NC2` gave a melting point of 151 to 152 °C.

The molecule `COCCOc1cc(N)c(Cl)cc1C(=O)O` displayed a melting point of 119 to 120 °C.

Molecule `CCCCCC(=O)Nc1ccc2nnc(C(=O)OCC)c(O)c2c1` yielded a melting point of 265 to 266 °C.

The molecule `OC1CCN(c2ccccc2)C12CCNCC2` (racemic) gave a melting point of 141 to 144 °C.

For `COc1ccc2c(c1)C=C(C(=O)N1CCN(C(=O)c3cc(OC)c(OC)c(OC)c3)CC1)CCO2`, the melting point lay in the range of 110 to 115 °C.

As for `CNc1ncn(-c2c(C)cccc2Br)c(=O)n1`, the melting point lay within 238 to 240 °C.

Turning to `CCCCc1oc2ccccc2c1-c1ncc(-c2ccc3c(Br)c(O)ccc3c2)o1`, the melting point lay in the range of 172 to 174 °C.

`ON=Cc1cc(Cl)ncc1Cl` had a melting point of 173 to 174 °C.

For `CS(=O)(=O)N(C(=O)c1cc(Oc2ccc(C(F)(F)F)cc2Cl)ccc1[N+](=O)[O-])C(=O)c1cc(Oc2ccc(C(F)(F)F)cc2Cl)ccc1[N+](=O)[O-]`, the melting point lay within 166 to 168 °C.

The molecule `COc1cc2sc(CC(C)(Oc3ccc(C(C)C)cc3)C(=O)O)cc2c(Cl)c1OC` (centres undefined) displayed a melting point of 105 to 108 °C.

In the case of `NCc1c(CN(Cc2ccccc2)Cc2ccccc2)cccc1C(F)(F)C(F)(F)c1ccccc1`, the melting point was 172 to 174 °C.

`Cc1ccc(S(=O)(=O)NC(C)(C)C)o1` showed a melting point of 113 to 114 °C.

`O=C(O)CNC1CCc2ccccc2C1` (centres undefined) showed a melting point of 223 to 227 °C.

For `c1ccc2c(c1)CNc1ccccc1S2`, the melting point was in the range of 145 to 148 °C.

As to `COc1ccc(/C=C/CNc2cccc(-c3ccnc4c(C(=O)c5cccs5)cnn34)c2)cc1`, the melting point was 176 to 179 °C.

For the molecule `O=C1N(Cc2ncccc2C(F)(F)F)c2cccnc2C12COc1cc3c(cc12)OCCO3` (centres undefined), the melting point is > 250 °C.

`CC(=O)N1CCC(C(O)(c2ccccc2)c2ccc(F)cc2)CC1` (centres undefined) showed a melting point of 173 to 175 °C.

`CC[C@H](C)[C@H](NC(=O)N(C)Cc1ccccn1)C(=O)N[C@@H](Cc1ccccc1)[C@@H](O)C[C@H](Cc1ccccc1)NC(=O)OCc1cncs1` displayed a melting point of 66 to 69 °C.

The molecule `Nc1c(CC(=O)O)cccc1Nc1ccccc1Cl` had a melting point of 230 to 232 °C.

Regarding `CCN(C)C(N)=C(C#N)C(N)=S`, the melting point was 121 to 124 °C.

`Cc1cc2c(s1)SCCc1cc(=O)n(-c3ccc(Cl)cc3)nc1-2` gave a melting point of 150 to 151 °C.

`OCC1(c2ccc(Cl)cc2)CCC1` showed a melting point of 53 to 54 °C.

Consider `CNc1nc2[nH]c(-c3cccc(CNC(=O)COC)n3)cc2c2c1ncn2C`, for which the melting point came out at 263 °C.

Molecule `Cc1c(NC(=O)c2ccc(OC[C@@H]3CCCO3)cc2F)ccc2c1cc(CNCC(C)(C)O)n2C` yielded a melting point of 118 °C.

`Cc1cc(C)c(C)c(-c2cc3cnc(N)nc3nc2N)c1C`: the melting point lay in the range of 327 to 331 °C.

`CCOc1ccccc1C1CC(C(C)(C)C)=NN1c1ccc(C(=O)O)cc1` (centres undefined) showed a melting point of 213 °C.

For `CC1(C)CC(=O)Nc2cc(N)ccc21`, the melting point is 161 to 163 °C.

The molecule `CC(=O)C1=C(O)C(=C(C)Nc2ccc(S)cc2)C(=O)OC1=O` showed a melting point of 207 to 210 °C.
